Patent publication US20190030018A1 (Celgene Corporation, priority 2017, published 2019)

Key:
Assay in all cases: In vitro combination studies, CellTitre-Glo cell viability
[1] = system: MOLM-13; settings: MOLM-13; in combination with Compound 1
[2] = system: NOMO-1; settings: NOMO-1; in combination with Compound 1
[3] = system: KG-1; settings: KG-1; in combination with Compound 1
[4] = system: OCI-AML-2; settings: OCI-AML-2; in combination with Compound 1
[5] = system: F-36-P; settings: F-36-P; in combination with Compound 1
[6] = system: MV-4-11; settings: MV-4-11; in combination with Compound 1
[7] = system: HL-60; settings: HL-60; in combination with Compound 1
[8] = system: ML-2; settings: ML-2; in combination with Compound 1
[9] = system: OCT-AML-3; settings: OCI-AML-3; in combination with Compound 1
[10] = system: HNT-34; settings: HNT-34; in combination with Compound 1

Compound | Synergy analysis for combinations with Compound 1 [1] | Synergy analysis for combinations with Compound 1 [2] | Synergy analysis for combinations with Compound 1 [3] | Synergy analysis for combinations with Compound 1 [4] | Synergy analysis for combinations with Compound 1 [5] | Synergy analysis for combinations with Compound 1 [6] | Synergy analysis for combinations with Compound 1 [7] | Synergy analysis for combinations with Compound 1 [8] | Synergy analysis for combinations with Compound 1 [9] | Synergy analysis for combinations with Compound 1 [10]
O=C(/C=C/c1ccccc1)NC(NC(=S)Nc1cccc2cccnc12)C(Cl)(Cl)Cl (stereo not drawn) [Salubrinol] | No | No | No | No | No | No | No | No | No | No
COc1ccc(-c2ccc3c(N4CCOC[C@@H]4C)nc(N4CCOC[C@@H]4C)nc3n2)cc1CO [AZD8055] | Yes | Yes | No | Yes | Yes | No | No | No | Yes | No
CC(C)C[C@H](NC(=O)[C@@H](NC(=O)c1cccc(-c2ccccc2)n1)[C@@H](C)O)B(O)O [CEP-18770] | No | No | No | No | No | No | No | No | No | No
CN(C)C(=N)N=C(N)N [Metformin] | No | No | No | No | No | No | No | No | No | No
C[C@H](NC(=O)Cc1cc(F)cc(F)c1)C(=O)N[C@@H]1C(=O)N(C)c2ccccc2-c2ccccc21 [YO-01027] | No | No | No | No | No | No | No | No | No | No
CO[C@H]1CC[C@H](N2C(=O)CNc3ncc(-c4ccc(C(C)(C)O)nc4)nc32)CC1 [CC-223, 7-(6-(2-hydroxypropan-2-yl)pyridin-3-yl)-1-((trans)-4-methoxycyclohexyl)-3,4-dihydropyrazino[2,3-b]pyrazin-2(1H)-one, reference compound] | Yes | Yes | No | Yes | Yes | Yes | No | Yes | Yes | No
CC(C)C[C@H](NC(=O)[C@H](CCc1ccccc1)NC(=O)CN1CCOCC1)C(=O)N[C@@H](Cc1ccccc1)C(=O)N[C@@H](CC(C)C)C(=O)[C@@]1(C)CO1 [Carfilzomib] | No | No | No | No | No | No | No | No | No | No
pladienolide B [reference compound] | Yes | Yes | No | Yes | Yes | Yes | No | No | No | No
CC(C)n1nc(-c2ccc3oc(N)nc3c2)c2c(N)ncnc21 [MLN-0128] | Yes | No | No | Yes | Yes | No | No | No | No | No
CC(C)[C@]12O[C@H]1[C@@H]1O[C@]13[C@]1(O[C@H]1C[C@H]1C4=C(CC[C@@]13C)C(=O)OC4)[C@@H]2O [Triptolide] | Yes | No | No | No | No | No | No | No | No | No
C/C=C(/C)C(=O)O[C@H]1C(C)=C2[C@H]([C@@H]1OC(=O)CCCCCCC)[C@@](C)(OC(C)=O)C[C@H](OC(=O)CCC)[C@@]1(O)[C@H]2OC(=O)[C@@]1(C)O [Thapsigargin] | No | No | No | No | No | No | No | No | No | No
C[C@@H]1C[C@H]2[C@@H]3CCC4=CC(=O)C=C[C@]4(C)[C@@]3(F)[C@@H](O)C[C@]2(C)[C@@]1(O)C(=O)CO [Dexamethason] | No | Yes | No | No | No | No | No | No | No | No
CC(C)C[C@H](NC(=O)CNC(=O)c1cc(Cl)ccc1Cl)B(O)O [Ixazomib] | No | No | No | No | No | No | No | No | No | No
CCN1C(=O)CNc2ncc(-c3ccc(-c4nc[nH]n4)nc3C)nc21 [CC-115, 1-ethyl-7-(2-methyl-6-(1H-1,2,4-triazol-3-yl)pyridin-3-yl)-3,4-dihydropyrazino[2,3-b]pyrazin-2(1H)-one, reference compound] | Yes | Yes | No | Yes | Yes | Yes | No | Yes | Yes | Yes
COC(=O)[C@H]1[C@@H](O)[C@@]2(O)c3c(OC)cc(O[C@@H]4O[C@@H]([C@H](O)CO)CO[C@H]4OC)cc3O[C@@]2(c2ccc(OC)cc2)[C@@H]1c1ccccc1 [Silvestrol] | No | No | No | No | No | No | No | No | No | No
